Measurements: patent US20180028477A1, “TREATMENT OF CARDIAC REMODELING AND OTHER HEART CONDITIONS” (C & C BIOPHARMA, LLC, priority 2013, published 2018)
Where “and” joins values, the source holds several entries; their conditions need not be identical. Equal values may be shown once. Entries after “also recorded” stand apart in the source; their conditions may differ.

Legend:
[1] = tested on: cardiac hypertrophy induced by TAC in C57/BL/6 mice; experiment: TAC 21 days: cardiac mass, geometry, wall thickness, myocyte size (Example 4); assay type: in vivo; settings: 21 days after TAC
Experimental: (§1) The effects of 8MI on hypertrophy in a model of moderate pressure overload were tested further (FIGS. 5A-5E). 8MI or its vehicle (DMSO) was administered over a range of concentrations immediately prior to and for 21 days following transverse aortic coarctation (TAC). All experiments were performed on 2-3 month old wild type C57/BL/6 mice. Cardiac hypertrophy was induced by TAC as described in Wei et. al. 2008. Pressure gradients induced by TAC were evaluated postoperatively by pulsed-wave Doppler echocardiography to confirm equivalent gradients in all animals (45±5 mmHg). 8MI was delivered via tail vein injection one day prior to surgical intervention and then daily for 21 days. Blood samples were obtained at sacrifice on day 21 after surgery, and serum was frozen at […] until analysis
(§2) Masson's Trichrome was used to visualize cardiac four-chamber anatomy. Paraffin embedded sections were used for staining (FIG. 5B). Representative wheat germ agglutinin (WGA)-stained sections of myocardium from the mice were prepared. For echocardiography (FIG. 5C), mice were placed under anesthesia with 40 mg/kg ketamine and 5 mg/kg xylocaine and secured in a supine position. Mice were evaluated using […] transducer on a Visual Sonics 770 High Resolution Imaging System. B-mode in the short and long axis view of the ventricle was used to evaluate wall motion defects of ventricle and M-mode in long axis view used for the interventricular septal thickness, posterior wall thickness and the left ventricular dimensions in systole and diastole.
Hematoxylin and Eosin (HE) and FITC conjugated WGA (from Invitrogen) were used to evaluate myocardial cell size (FIGS. 5D and 5E). The sizes of cells from at least 4 myocardial sections from 3 mice per condition were measured (FIG. 5E). WGA samples were counterstained with DAPI and images were merged from the DAPI and FITC channels.

[2] = tested on: ventricular fibrosis after TAC in mice; experiment: TAC 21 days: ventricular fibrosis, Masson's Trichrome (Example 5); assay type: in vivo; settings: 21 days after TAC
Excerpt: Using cardiac tissue samples obtained from the same mice treated under the experimental conditions described in Example 4, Masson's Trichrome was used to stain fibrotic tissue (FIG. 6A). Fibrotic area was quantified and expressed relative to the total tissue area (FIG. 6B). Ventricular fibrosis was prominent in mice 21 days after TAC, but not in sham-operated mice (FIGS. 6A and 6B).

[3] = tested on: cardiac function after TAC in mice; experiment: Echocardiography of cardiac function 21 days post TAC (Example 8); assay type: in vivo
Experimental: as §2
Echocardiographic studies were performed on the mice to examine systolic function under the experimental conditions described in Example 4. […] As expected, TAC induced a 37% fall in ejection fraction at 21 days (sham, 82.4±1.8% vs. TAC, 51.7±5.1%) (FIG. 8A). […] The mice maintained a near-normal ejection fraction of 75.4% at the highest dose of 8MI (FIG. 8A). […] LV end diastolic diameter (LViDd) (FIG. 8D), LV end-systolic diameter (LViDs) (FIG. 8E), LV systolic volume (LV Vs) (FIG. 8F), and LV diastolic volume (LV Vd) (FIG. 8G) were increased by TAC and diminished in the presence of 8MI. […] Heart rate was unaffected in all mice (FIG. 8H).

[4] = Serum chemistries in mice subjected to TAC and treated with 8MI (Example 6); assay type: in vivo; settings: for ALT / BUN / Calcium / Creatinine / Glucose / Total Protein: serum, TAC
Experimental: as §1
Prior to sacrifice, serum was extracted from the blood of the mice treated as described in Example 4.

GATA4 = GATA4 acetylation in myocardial lysates, immunoprecipitation/Western (Example 9); assay type: in vivo; settings: TAC-operated mice, same conditions
Experimental: (§3) Acetyl-MEF2 and acetyl-GATA4 were determined as described in Example 9 in myocardial lysates of TAC- or sham-operated mice treated with the indicated doses of 8MI, or its vehicle (0), as indicated. […] MEF2 acetylation is increased by TAC and reduced by 8MI. Myocardial lysates were immunoprecipitated with either anti-pan MEF2 or GATA4 antibodies, and probed with antibodies against MEF2, GATA4 or acetyl-lysine (control). The quantified data shown in FIG. 9 is from 3 mice per group and normalized to total acetyl-lysine (western blots are not shown).
(§4) MEF2 acetylation was determined in myocardial tissue from sham- and TAC-operated mice in the presence of vehicle or 8MI, under the experimental conditions described in Example 4. Protein samples were collected in RIPA (Sigma). […] of protein samples were incubated with 5 μg of acetyl lysine or GATA4 antibodies (Upstate, Charlottesville, Va.) or MEF2 antibody (Santa Cruz Biotechnology, Santa Cruz, Calif.) (5 μg). The immune-complexes were captured using TrueBlot sepharose beads and subjected to Western analysis. The immune complexes were resolved on SDS-PAGE and transferred to nitrocellulose membranes. Membranes were blocked with 5% milk in 0.5% TBS-T for 1 hour at room temperature followed by incubation in primary antibody at appropriate dilutions overnight. […]

MEF2 = MEF2 acetylation in myocardial lysates, immunoprecipitation/Western (Example 9); assay type: in vivo, mice
Experimental: as §3, §4

[5] = Tolerability in mice, daily dosing for four weeks; assay type: in vivo; settings: 100 mg/Kg daily for four weeks
[6] = 21 days post TAC, depressed by TAC
[7] = 21 days post TAC, increased by TAC
[8] = 8MI 5 mg/kg, individual mice #7-9
[9] = 8MI 20 mg/kg, individual mice #10-12
[10] = 8MI 40 mg/kg, individual mice #13-15

## Nc1ccccc1NC(=O)CCCCCC(=O)Nc1cccc(Br)c1 [8MI]
[1]
  effect on heart weight in comparison to previously published results for TSA: significantly superior effect
  reduction of myocyte cross sectional area in comparison to previously published results for TSA: significantly superior effect
[1]; 40 mg/kg
  HW/TL at the highest dose: normal levels
[1]; WGA-stained sections
  TAC-induced increase of myocyte cross-sectional area / myocyte size: effectively eliminated this 2.2-fold increase; also recorded: normalization of myocyte size
[1]; dose-dependent
  remodeling of the myocardium (four-chamber sections): prevented remodeling of the myocardium; also recorded: normalization of cardiac geometry
[1]; highest dose of 8MI (vehicle 35.9%±1.0%)
  increase of echocardiographic wall thickness: 6.9%±1.4%
[1]; indicated doses
  echocardiographic posterior wall thickness: normalization of echocardiographic posterior wall thickness
[1]; indicated doses up to 40 mg/kg, tail vein daily
  TAC-induced increase of heart weight (HW/TL): blunted the increase of heart weight in a dose-dependent manner; also recorded: normalization of cardiac mass
[2]; dose range
  fibrotic response (fibrotic area relative to total tissue area): significantly reduced in a dose-dependent manner; also recorded: reduces fibrosis
[2]; highest dosage
  fibrotic response (fibrotic area relative to total tissue area) at the highest dosage: eliminated
[3]; 21 days post TAC, 5, 20 and 40 mg/kg, dose-dependent
  systolic function / cardiac function under sustained pressure overload: preserved systolic function; also recorded: preservation of cardiac function
[3]; 21 days post TAC, highest dose of 8MI (sham 82.4±1.8%, TAC 51.7±5.1%)
  ejection fraction: 75.4%
[3]; [6]
  fractional shortening (FS): similarly restored
  stroke volume: similarly restored
[3]; [7]
  LV end diastolic diameter (LViDd): diminished
  LV end-systolic diameter (LViDs): diminished
  LV systolic volume (LV Vs): diminished
[3]; all mice, 21 days
  heart rate: unaffected
[3]; sham-operated mice treated with 8MI
  cardiac function in sham-operated mice: normal cardiac function
[4]; TAC mice, 5-40 mg/kg, 21 days
  tolerability from serum chemistries: well tolerated
[4]; mice receiving any dose of 8MI (control: 2 out of 3)
  mice with significant renal and/or hepatic dysfunction induced by TAC: 1 out of 9
[4]; [8]
  ALT: 47 U/L and 53 U/L and 58 U/L
  BUN: 26 mg/dL and 21 mg/dL and 25 mg/dL
  Calcium: 11.7 mg/dL and 9.7 mg/dL and 11 mg/dL
  Creatinine: 0.2 mg/dL
  Glucose: 375 mg/dL and 158 mg/dL and 294 mg/dL
  Total Protein: 5.6 g/dL and 5.8 g/dL and 5.4 g/dL
[4]; [9]
  ALT: 51 U/L and 73 U/L and 57 U/L
  BUN: 21 mg/dL and 19 mg/dL and 28 mg/dL
  Calcium: 9.9 mg/dL and 10.3 mg/dL and 11.1 mg/dL
  Creatinine: 0.2 mg/dL
  Glucose: 224 mg/dL and 177 mg/dL and 326 mg/dL
  Total Protein: 5.3 g/dL and 5.6 g/dL and 6.0 g/dL
[4]; [10]
  ALT: 56 U/L and 308 U/L and 60 U/L
  BUN: 21 mg/dL and 26 mg/dL and 23 mg/dL
  Calcium: 10.6 mg/dL and 8.7 mg/dL and 10.1 mg/dL
  Creatinine: 0.3 mg/dL (2×) and 0.6 mg/dL
  Glucose: 455 mg/dL and 140 mg/dL and 252 mg/dL
  Total Protein: 6.2 g/dL and 5.5 g/dL and 5.7 g/dL
GATA4
  total and Ac-GATA4 levels: no significant change
MEF2; TAC-operated mice, increasing doses of 8MI
  TAC-induced acetyl-MEF2 content: reduced the acetyl-MEF2 content to level at or below those of the sham-operated mice; also recorded: reduced
MEF2; sham-operated mice, maximum dose (40 mg/kg) versus vehicle (DMSO), 40 mg/kg
  total acetyl-MEF2 content, basal: not different; also recorded: does not reduce acetyl-MEF2 levels
[5]
  signs of kidney or liver damage or other adverse effects: no sign of kidney or liver damage or other adverse effects; also recorded: without any signs of kidney or liver disease or other adverse effects
